Test results reported in publication PMC5120274, “Characterization of the Annonaceous acetogenin, annonacinone, a natural product inhibitor of plasminogen activator inhibitor-1” (Scientific Reports, 2016).
“And” between values parts separate entries of the source, which are not always exact repeats. Equal values may be shown once.

Columns and labels:
PAI-1 [1] = molecular target: T1, PAI-1 (Homo sapiens, UniProt P05121); experiment: thromboelastography (TEG) on pooled human plasma with tPA and PAI-1; type: biochemical
T1 construct: purchased Stago BNL (Asnières sur Seine, FR)
T1 sequence (P05121 24-402): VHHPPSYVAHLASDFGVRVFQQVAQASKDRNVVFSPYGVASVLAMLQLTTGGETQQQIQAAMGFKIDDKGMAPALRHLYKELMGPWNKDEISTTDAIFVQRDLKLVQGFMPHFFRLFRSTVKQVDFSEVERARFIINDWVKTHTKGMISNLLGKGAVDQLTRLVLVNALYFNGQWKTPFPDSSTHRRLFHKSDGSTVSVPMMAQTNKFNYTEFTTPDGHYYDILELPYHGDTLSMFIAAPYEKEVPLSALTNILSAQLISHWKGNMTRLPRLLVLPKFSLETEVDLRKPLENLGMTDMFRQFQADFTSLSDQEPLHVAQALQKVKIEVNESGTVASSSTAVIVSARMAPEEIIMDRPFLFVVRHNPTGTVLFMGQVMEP
Procedure: 20 μL of CaCl2 (0.2 M), 10 μL of PAI-1 (final concentration 22 nM) and 10 μL of tested compounds were added in a TEG cup and pre-incubated for 20 min at room temperature. On the other hand, 1 mL of pooled citrated normal human plasma (pool of at least 10 healthy donors) was added to a vial containing 20 μL of Kaolin. 680 μl of the plasma/Kaolin mixture were then added to 20 μL of tPA (final concentration 9 nM). At the end of pre-incubation time, 320 μL of the plasma/tPA/kaolin mixture were transferred into the TEG cup and the thromboelastogram measured.

PAI-1 [2] = system: T2, PAI-1; experiment: native PAGE analysis of PAI-1 polymerization; type: biochemical, human; conditions: increasing concentrations up to 50 μM, 30 min 37 °C
T2 construct: purchased Stago BNL (Asnières sur Seine, FR)
Procedure: PAI-1 (1 μM) was mixed with various concentration of annonacinone or DMSO 1% for 30 min at 37 °C. Samples were mixed with 1/3 volume of native gel sample buffer or LDS sample buffer. The former were subjected to BN-PAGE and the latter were fractioned by SDS-PAGE. Proteins band were visualized by silver staining.

human antithrombin = system: T3, human antithrombin; experiment: continuous chromogenic assay: fondaparinux-catalyzed inhibition of factor Xa by antithrombin; type: biochemical; conditions: antithrombin pre-incubated with 50 μM annonacinone 20 min 37 °C; control buffer 7.9 × 10^−3
T3 construct: purchased LFB (Aclotin)
Procedure: (§1) 5 μM human α1-antitrypsin (Sigma) or human antithrombin (Aclotin®, LFB) were incubated with 50 μM annonacinone (or 0.5% DMSO in reaction buffer as control) for 20 min at 37 °C. The mixtures containing α1-antitrypsin were diluted in N-Methoxysuccinyl-Ala-Ala-Pro-Val p-nitroanilide (Sigma) containing solution and substrate hydrolysis kinetic was triggered by addition of neutrophil elastase (Sigma) to a final volume of 100 μL containing 13 nM α1-antitrypsin, 130 nM annonacinone, 82 μM chromogenic substrate and 5 nM neutrophil elastase. The mixtures containing antithrombin were diluted in fondaparinux (Arixtra®, GlaxoSmithKline) and CS-11(22)-FXa (Hyphen Biomed) containing solution and substrate hydrolysis kinetic was triggered by addition of factor Xa (Stago BNL) to a final volume of 100 μL containing 51 nM antithrombin, 510 nM annonacinone, 200 μM chromogenic substrate, 5 μM fondaparinux and 2 nM factor Xa.

PAI-1 K122A = system: T4, PAI-1 K122A; experiment: chromogenic screening assay with PAI-1 mutant K122A; type: biochemical; conditions: for Annonacinone activity 50 μM (% WT): ratio of kapp relative to WT (100%)
T4 construct: made in house
Procedure: (§2) Compounds from our local collection BioCIS and from the Prestwick compound library (Prestwick chemicals, Illkirch, FR), a collection containing only FDA approved drugs (around 4000 compounds in total) were tested in a chromogenic assay measuring the inhibition rate of tPA-catalyzed spectrozyme® tPA hydrolysis in the presence of PAI-1. Compounds (20 μL, final concentration 50 μM, 1% DMSO) were dispensed in a 96 well half area Greiner plate. A mixture containing 20 μL of PAI-1 (final concentration 20 nM) and 80 μL of Spectrozyme-tPA (final concentration 400 μM) was then added, and the mixture pre-incubated for 45 minutes at 37 °C. At the end of pre-incubation time, 90 μL of the mixture were added to another 96 well half area plate containing 10 μL tPA (final concentration 10 nM). The kinetic was then measured at 405 nm for 45 min at 37 °C in an Envision microplate reader. Progress curves were fitted using the pseudo first order equation to determine the apparent rate constant k.
Mutants were constructed as previously described. Based on computer modelling, the following mutants were prepared, T79A, T94A, D95A, R118A and K122A. The effect of annonacinone was measured at 50 μM for each mutant in our chromogenic screening assay. Progress curves were fitted using the pseudo first order equation to determine the apparent rate constant k. For each mutant, the ratio between the apparent rate constants with and without 50 μM annonacinone were calculated and then compared to that of PAI-1 WT to determine the % of annonacinone activity.

human α1-antitrypsin = system: T5, human α1-antitrypsin; experiment: continuous chromogenic assay: inhibition of neutrophil elastase by α1-antitrypsin; type: biochemical; conditions: α1-antitrypsin pre-incubated with 50 μM annonacinone 20 min 37 °C; untreated 1.2 × 10^−3
T5 construct: purchased Sigma
Procedure: as §1

PAI-1 R118A = system: T6, PAI-1 R118A; experiment: chromogenic screening assay with PAI-1 mutant R118A; type: biochemical
T6 construct: made in house
Procedure: as §2
(§3) Mutants were constructed as previously described. […] The effect of annonacinone was measured at 50 μM for each mutant in our chromogenic screening assay. […] For each mutant, the ratio between the apparent rate constants with and without 50 μM annonacinone were calculated and then compared to that of PAI-1 WT to determine the % of annonacinone activity.

PAI-1 Y79A = system: T7, PAI-1 Y79A; experiment: chromogenic screening assay with PAI-1 mutant Y79A; type: biochemical
T7 construct: made in house
Procedure: as §2, §3

PAI-1 [3] = system: T2, PAI-1; experiment: elastase mediated cleavage of PAI-1 (latency transition) on SDS-PAGE; type: biochemical, human; conditions: up to 50 μM
Procedure: Selective cleavage of active PAI-1 by elastase was observed on SDS-PAGE. PAI-1 (5 μL, 2 μM) was incubated with or without compounds (200 μM, 5 μL, 5% DMSO) for 15 min at 37 °C. Elastase (5 μL, 1.4 μM) was then added and further incubated for 15 min at 37 °C. Reaction was stopped by addition of 4X loading buffer containing SDS and BME followed by immediate boiling. Samples were then analyzed on SDS-PAGE followed by silver staining.

PAI-1 [4] = molecular target: T1, PAI-1; experiment: chromogenic screening assay: rate of tPA inhibition by PAI-1 (spectrozyme tPA hydrolysis); type: biochemical; conditions: mean ± SEM
Procedure: as §2

PAI-1 T94A = system: T8, PAI-1 T94A; experiment: chromogenic screening assay with PAI-1 mutant T94A; type: biochemical
T8 construct: made in house
Procedure: as §2, §3

[5] = compound 50 μM, tPA 9 nM + PAI-1 22 nM
[6] = ratio of kapp relative to WT (100%)

Structure (SMILES): CCCCCCCCCCCC[C@@H](O)[C@H]1CC[C@H]([C@H](O)CCCCC(=O)CCCCC[C@@H](O)CC2=C[C@H](C)OC2=O)O1 [Annonacinone]
- IC50 (PAI-1 [1]; LY60 of three independent experiments plotted against concentration, read-out: IC50 from LY60 values): 2.3 ± 1 µM
- effect on maximal amplitude (MA) and parameters of clot formation (R, K, angle) (PAI-1 [1]; TEG, human plasma): no significant effect
- Angle (PAI-1 [1]; [5]): 73.5 °
- K (clot formation time) (PAI-1 [1]; [5]): 1.6 min
- MA (maximal amplitude) (PAI-1 [1]; [5]): 21.4 mm
- R (clotting time) (PAI-1 [1]; [5]): 6 min
- LY30 (clot lysis 30 minutes after maximal amplitude) (PAI-1 [1]; compound 50 μM, tPA 9 nM + PAI-1 22 nM, tPA alone 94.3%, tPA + PAI-1 0%): 87.1%
- LY60 (clot lysis 60 minutes after maximal amplitude) (PAI-1 [1]; compound 50 μM, tPA 9 nM + PAI-1 22 nM, tPA alone 96.8%, tPA + PAI-1 0%): 94% and 93.6%
- effect on PAI-1 polymerization (PAI-1 [2]): did not permit to show formation of PAI-1 polymers
- kapp of factor Xa inhibition by fondaparinux-bound antithrombin (human antithrombin): 0.0083 s⁻¹
- kapp Annonacinone 50 μM (PAI-1 K122A; DMSO 1% 1,9 ± 0,3 × 10^−3, n = 4): 3,5 ± 0,9 × 10^−4 s^−1
- Annonacinone activity 50 μM (% WT) (PAI-1 K122A): 80 ± 13 % WT
- Annonacinone activity 50 μM (% WT) (PAI-1 K122A; listed as annonacinone): no effect
- kapp of neutrophil elastase inhibition by α1-antitrypsin (human α1-antitrypsin): 0.0011 s⁻¹
- kapp Annonacinone 50 μM (PAI-1 R118A; DMSO 1% 6,0 ± 0,9 × 10^−3, n = 4): 3,4 ± 0,3 × 10^−4 s^−1
- Annonacinone activity 50 μM (% WT) (PAI-1 R118A; [6]): 264 ± 40 % WT
- kapp Annonacinone 50 μM (PAI-1 Y79A; DMSO 1% 4,0 ± 1,0 × 10^−3, n = 4): 4,8 ± 0,9 × 10^−3 s^−1
- Annonacinone activity 50 μM (% WT) (PAI-1 Y79A; ratio of kapp without/with annonacinone relative to WT (100%)): 12 ± 2 % WT
- effect on latency transition of PAI-1 (PAI-1 [3]): No effects
- kapp Annonacinone 50 μM (PAI-1 [4]; PAI-1 WT (Table 2 series), DMSO 1% 6,5 ± 0,6 × 10^−3, n = 4): 9,6 ± 1,0 × 10^−4 s^−1
- IC50 (PAI-1 [4]; chromogenic screening assay, without vitronectin, n = 3, read-out: IC50): 9 ± 1 µM
- kapp 50 μM (apparent rate constant of tPA inhibition by PAI-1) (PAI-1 [4]; compound 50 μM, 1% DMSO, PAI-1 20 nM, tPA 10 nM, DMSO 1% control 4.4 ± 0.3 × 10^-3, n = 3): 6.4 ± 0.7 × 10^-4 s^-1
- kapp Annonacinone 50 μM (PAI-1 T94A; DMSO 1% 6,6 ± 0,9 × 10^−3, n = 4): 2,3 ± 0,4 × 10^−3 s^−1
- Annonacinone activity 50 μM (% WT) (PAI-1 T94A; [6]): 42 ± 6 % WT
